Source: patent US20150299277A1, “AGENT FOR TREATING OR PREVENTING SYSTEMIC INFLAMMATORY RESPONSE SYNDROME” (THE UNIVERSITY OF TOKYO, priority 2012, published 2015)
“Also recorded” adds a separate entry of the source.

Assays:
histone H4 on HUVEC = test: Cytotoxic assay: suppression of histone cytotoxicity on HUVEC; assay type: cell-based, human; conditions: 1 hr culture, PI staining, FACS
Description: (§1) Normal human umbilical vein endothelial cells (HUVECs) were cultured in EGM2 medium (Clonetics). The cells after culture were washed with PBS, added with Opti-MEM medium containing an product of incubation of activated protein C (APC), PTX3, C reactive protein (CRP) or Serum amyloid P component (SAP) with histone for 1 hr, and the cells were further cultured for 1 hr. Propidium iodide (PI) was added to the medium after culture at a final concentration of 10 μg/mL, and the cells were stained for 10 min. The cells were washed with PBS, detached and analyzed by flow cytometry.
(§2) Using each recombinant histone instead of Calf Thymus Histones, a suppressive effect of full-length PTX3 or the N-terminal domain of PTX3 on histone cytotoxicity was studied in the same manner.
Lastly, capacity of suppressing the cytotoxic activity of histone was confirmed. Since this experiment requires a certain amount of protein and an endotoxin-elimination as treatment, a protein was expressed and purified at a 500 mL culture scale, and subjected to an endotoxin-elimination treatment (FIG. 18). In the case of PTX3 N-terminal domain, about 10 mg was obtained at a 500 mL culture scale, and a loss by the endotoxin-elimination treatment was scarcely observed. […] A capacity of fragment proteins obtained at a 500 mL scale on HUVEC to suppress histone cytotoxicity was studied. […]

[1] = tested on: each recombinant histone on HUVEC; test: as above; assay type: cell-based, human; conditions: 1 hr culture, PI staining, FACS
Description: as §1, §2

Row | Substance | suppression of toxic activity of histone H4 on HUVEC (histone H4 on HUVEC) | suppression of toxic activity of each recombinant histone on HUVEC [1]
1 | N-terminal domain of PTX3: N-terminal domain human PTX3 (18-178 amino acids, SEQ ID NO: 3), tagged, expressed in CHO cells or Escherichia coli | suppress; also recorded: suppressed | –
2 | full-length PTX3: full-length human pentraxin 3 (1-381 amino acids, SEQ ID NO: 2), used tag-free or Myc- and His-tagged | – | suppressed
